Data as given in patent US20180228897A1, “Compositions for Vapor Phase Delivery of Active Compounds, Methods of Making and Using Same, and Kits Comprising Same” (Atmovita, LLC, priority 2015, published 2018).
Read-outs that look alike come from different tables or passages of the source. Peptide text beside a SMILES is read from it. * marks the point of attachment. PhAc = O=C(Cc1ccccc1)*

Assays:
Type in all cases: physicochemical
[1] = Preparation of compositions (Example 3): appearance and stability of the solution
[2] = Increase in solubility of active compounds in the present compositions
From the text: It is advantageous to take measures to increase the solubility of an active compound or active compounds within a composition that includes components that serve as excipients such that true solubilization of the compound(s) occurs and the activity of the active compounds are retained upon transition to the vapor phase. The present disclosure is based on the result that the solubility of active compounds can be increased by surprising and unexpected amounts.

[3] = Folate solubility in glycerin/2,3 butane diol stock compositions with co-solutes (incremental addition, heat gun, stirring); conditions: organic solvent or mixture, thermodynamic from solid; stock/water/ethanol solvent
Experimental: Folate. Folate and biotin are the two most difficult to dissolve B vitamins. Folate solubility enhancement was provided by addition of beta-cyclodextrin.
The solubility enhancement from mannitol/biotin alone was tested next. […] This is major improvement over most polar solvents (0.0016 g/L of water at 25° C.).
First the mannitol/biotin powder was mixed with 0.004 g of folate. This was added to the test tube followed by the liquid. It was stirred vigorously. Then it was heated with a heat gun until clear and no folate was suspended. […] All the liquid was moved to another test tube and the precipitate remained. Then folate was incrementally added (about 1 mg) and the solution was stirred, followed by heating** until it became clear. It would take at least 3 minutes of heating for it to become clear but as more folate was added, at least 4 minutes of heating were needed. This is how the original solution was formed. Over the course of several days there was no further precipitate or increase in viscosity. ** all heating was done with the yellow heat gun on the lowest setting (240° F.)
While heating and stirring the lid popped off and 0.75 ml of solution spilled out. Even accounting for folate lost in the spill, currently at least 8 mg of folate have been dissolved in 2.75 ml and the solution is completely clear. Heating the solution caused the lid to pop so it must be removed after about 1 minute and 30 seconds of heating prior to any further heating. It is also crucial for the solution to have been flipped upside down, preferably while warm. The solution must not be heated while flipped as this may cause a spill.
The original solution still has less much viscosity but also a slightly lower concentration of folate. It appears that somewhere beyond 8 mg folate/[…] of solution it becomes supersaturated, resulting in a thick gel upon settling and cooling. […] As long as supersaturation followed by settling is avoided, the solution will remain liquid. Another option is to study the effect of precipitation inhibitors or the sonicator to further boost solubility without increasing viscosity.
Testing was also done with only stock, stock+water and stock+ethanol but having both water and ethanol is crucial to the process. […] Despite having separated the liquid from the precipitate which was nearly all biotin/mannitol, the powder still played a role in improving folate solubility. […] The following composition (3 ml stock+0.25 ml water+0.25 ml ethanol+0.009 g of biotin) dissolved 11.2 mg of folate but became extremely viscous.
According to research on drug solubility there is a class of molecules known as hydrotropes (also known as chaotropes, […]). They reduce hydrophobic forces between non-polar solutes in polar solvents. One such molecule is niacinamide (vitamin B3 amide). These hydrotropes are planar and are either very polar or have nonpolar and polar sides like surfactants but shorter. This experiment was repeated with niacinamide as a cosolute and with a combination of B3 amide and Biotin. The biotin and B3 amide were added along with 4 mg of folate (and crushed together) wet into dry to the solution. The remaining folate was added incrementally along with heating and stirring. […] (2.5 ml stock+0.5 ml water+0.5 ml ethanol+0.0221 g of B3 amide) dissolved approximately 11 mg of folate and a small amount of precipitate. (2.5 ml stock+0.5 ml water+0.5 ml ethanol+0.0221 g of B3 amide+0.090 g pure biotin) dissolved approximately 11.4 mg of folate without precipitate. Unfortunately both solutions were extremely viscous after a few days.
Eventually the B3 amide and biotin cosolute solution was prepared using “reverse stock” instead of regular with the goal of lowering viscosity. The reverse stock is a solution of 3:7 mol glycerin and 2,3 butane diol. Initially this made folate precipitate so additional glycerin was added to achieve a 1:1 mol ratio of glycerin to 2,3 butane diol.

[4] = Trans resveratrol solubility in stock with solvents and co-solutes (incremental addition, heat gun)
Experimental: The initial approach was to test non polar solvents and their effectiveness with ethanol. This included pure stock as a control, carvone, and combinations of those solvents with ethanol. The following solvents were prepared: Control—3.5 ml of pure stock, 1-1.75 ml of stock+1.75 ml of carvone+0.2 ml of 0.01 mol NaOH, 2-3.5 ml of pure carvone, 3-3 ml of stock+0.5 ml of ethanol, 4-3 ml of carvone+0.5 ml of ethanol.
Solution 1 became biphasic and cloudy. The control and solution 4 have approximately the same solubility of TR. […] Solvent was added until the TR was dissolved which occurred at 60 mg/ml of stock. This original solution was split into 5 test tubes of 1 ml each with about 0.06 g of TR.
The following solutions were made: 1—adding […] of carvone (equimolar with TR, 0.000263 mol of each) 2—adding 0.175 ml of ethanol 3-0.235 ml of carvone and 0.1 ml of ethanol. Solution 1 became cloudy because the carvone is immiscible with the stock. Several attempts to fix this were made using of ethanol and B3 amide as hydrotropes but it had no effect.
Next co-solutes were used along with the TR in stock solution. 0.000263 mol of the following were dissolved along with TR in 3 ml stock: 1-niacin, 2-caffeine, 3-gallic acid, 4-salicylic acid, 5-thiamine, 6-niacinamide, and 7-pantothenic acid. Two additional samples were prepared of 0.01 g biotin (8) and 0.04 g of -pyridoxine HCl (9). Each solution consisted of the stated amount of co-solute and 3 ml of stock. The following amounts of TR (which was added incrementally (30-40 mg) and heated for 3-4 minutes by heat gun) created the following:
To conduct further testing 0.5 ml of ethanol was added to the solutions with niacin, biotin, thiamine, and salicylic acid. The successful B3 amide solution was split into two solutions of (1.625 and 1.375 ml) with 0.25 ml of ethanol being added to the 1.375 ml solution. The results were as follows:
There was also testing with multiple solutes in 3 ml of stock:
Currently piperazine hexahydrate is being tested as it is another hydrotrope. […] It may work better with other co-solutes or ethanol.

[5] = 0.693 g L-arginine and 0.693 g l-theanine in 0.75 ml stock, 2.5 ml water, 0.25 ml flavored glycerin

Q: Which appearance of composition [1, 5] does the source give for CCNC(=O)CC[C@H](N)C(=O)O [l-theanine] here?
A: The appearance of composition was “clear and flavored solution”.

Q: Which increase in solubility ([2]; in the present compositions, D3 with ß-propoxy cyclodextrin) does the source give for C=C1CC[C@H](O)C/C1=C/C=C1\CCC[C@]2(C)[C@@H]([C@H](C)CCCC(C)C)CC[C@@H]12 [Vitamin D3] here?
A: Its increase in solubility is 22,000%.

Q: What about the appearance of composition ([1]; 5 mg Vitamin D3, 15 mg βcyclodextrin, 15 mg cinnamic acid, 15 mg ethyl vanillin in 2.5 ml stock+1.0 ml water, heated at 175° C.) of the same molecule?
A: Its appearance of composition is “clear solution with flavor”.

Q: Which results are given for cyanocobalamin [B12]?
A: increase in solubility [2]: 600%; concentration of final translucent solution ([1]; water, 70% glycerin/30% 2,3 butane diol (v/v), 0.01M NaOH, 95% EtOH, room temperature): ~0.21 M

Q: With Cc1cc2nc3c(=O)[nH]c(=O)nc-3n(C[C@H](O)[C@H](O)[C@H](O)CO)c2cc1C [riboflavin] as the molecule, how does the appearance of composition ([1]; 18 mg riboflavin, 9.26 mg l-arginine in 1.5 ml stock and 2.0 ml of 0.1 mol Na2CO3) read?
A: Its appearance of composition is “clear solution”.

Q: Which increase in solubility [2] does the source give for O=C(O)CCCC[C@@H]1SC[C@@H]2NC(=O)N[C@@H]21 [biotin] here?
A: The increase in solubility was “comparable increases”.

Q: And the solubility [3]?
A: Its solubility is about 3 mg/mL.

Q: Which appearance of composition ([1]; 0.335 g noopept, 58 mg cinnamic acid in 2.0 ml stock, 2.0 ml ethanol, 0.1 ml flavored glycerin) does the source give for CCOC(=O)CNC(=O)[C@@H]1CCCN1C(=O)Cc1ccccc1 [noopept] (PhAc-Pro-Gly-OEt) here?
A: The appearance of composition was “clear and flavored solution”.

Q: With N=C(N)NCCC[C@H](N)C(=O)O [L-arginine] as the molecule, how does the appearance of composition [1, 5] read?
A: The appearance of composition was “clear and flavored solution”.

Q: With CC(C)(CO)[C@@H](O)C(=O)NCCC(=O)O [Pantothenic Acid] as the molecule, how does the appearance of composition ([1]; 0.2 g vitamin B5 in 1.5 ml stock, 2.0 ml fruit flavored vodka, 0.1 ml flavored glycerin) read?
A: Its appearance of composition is “clear and flavored solution”.

Q: Which “amount of TR added” value ([4]; 0.000263 mol piperazine.6H2O in 1 ml stock) does the source give for Oc1ccc(/C=C/c2cc(O)cc(O)c2)cc1 [TR, Trans-resveratrol] here?
A: Its value is 0.0731 g.

Q: What about the “appearance of solution after a few days” value ([4]; 0.000263 mol piperazine.6H2O in 1 ml stock, 0.0731 g TR) of the same molecule?
A: Its value is “the solution became dark and there was a small amount of precipitate”.

Q: What about the “amount of TR dissolved” value ([4]; 0.0100 g B7+3.5 ml stock+0.5 ml ethanol) of the same molecule?
A: Its value is 0.2606 g.

Q: And the “amount of TR dissolved” value ([4]; 0.0324 g B3+3.5 ml stock+0.5 ml ethanol)?
A: Its value is 0.2316 g.

Q: What about the “TR dissolved per ml” value ([4]; 0.048175 B3 amide+1.375+0.25 ml ethanol) of the same molecule?
A: The value was 0.125 g TR/ml.

Q: What about the “TR dissolved per ml” value ([4]; 0.048175 B3 amide+1.625 ml) of the same molecule?
A: The value was 0.125 g TR/ml.

Q: What about the “amount of TR dissolved” value ([4]; 0.0698 g B1+3.5 ml stock+0.5 ml ethanol) of the same molecule?
A: Its value is 0.2333 g.

Q: And the “amount of TR added” value ([4]; 3 ml stock + 0.000263 mol caffeine (2))?
A: Its value is 0.0131 g.

Q: And the “amount of TR added” value ([4]; 3 ml stock + 0.000263 mol gallic acid (3))?
A: Its value is 0.1784 g.

Q: And the “amount of TR added” value ([4]; 3 ml stock + 0.000263 mol niacin (1))?
A: The value was 0.1776 g.

Q: And the “amount of TR added” value ([4]; 3 ml stock + 0.000263 mol niacinamide (6))?
A: Its value is 0.1738 g.

Q: What about the “amount of TR added” value ([4]; 3 ml stock + 0.000263 mol pantothenic acid (7)) of the same molecule?
A: Its value is 0.0131 g.

Q: What about the “amount of TR added” value ([4]; 3 ml stock + 0.000263 mol salicylic acid (4)) of the same molecule?
A: Its value is 0.1784 g.

Q: What about the “amount of TR added” value ([4]; 3 ml stock + 0.000263 mol thiamine (5)) of the same molecule?
A: Its value is 0.1808 g.

Q: What about the “amount of TR added” value ([4]; 3 ml stock + 0.01 g biotin (8)) of the same molecule?
A: The value was 0.1733 g.

Q: What about the “amount of TR added” value ([4]; 3 ml stock + 0.04 g pyridoxine HCl (9)) of the same molecule?
A: The value was 0.1859 g.

Q: What about the appearance of solution ([4]; 3 ml stock + biotin (8), 0.1733 g TR) of the same molecule?
A: The appearance of solution was “tiny amount of suspension”.

Q: What about the appearance of solution ([4]; 3 ml stock + caffeine (2), 0.0131 g TR) of the same molecule?
A: Its appearance of solution is “immediately precipitated”.

Q: What about the appearance of solution ([4]; 3 ml stock + gallic acid (3), 0.1784 g TR) of the same molecule?
A: The appearance of solution was “clearly visible suspension and precipitate on bottom”.

Q: And the appearance of solution ([4]; 3 ml stock + niacin (1), 0.1776 g TR)?
A: The appearance of solution was “slight visible suspension of particles”.

Q: What about the appearance of solution ([4]; 3 ml stock + niacinamide (6), 0.1738 g TR) of the same molecule?
A: Its appearance of solution is “totally clear solution with low viscosity”.

Q: What about the appearance of solution ([4]; 3 ml stock + pantothenic acid (7), 0.0131 g TR) of the same molecule?
A: The appearance of solution was “cloudy solution without precipitate”.

Q: And the appearance of solution ([4]; 3 ml stock + pyridoxine HCl (9), 0.1859 g TR)?
A: Its appearance of solution is “clearly visible suspension with precipitate”.

Q: What about the appearance of solution ([4]; 3 ml stock + salicylic acid (4), 0.1784 g TR) of the same molecule?
A: Its appearance of solution is “small amount of suspension and precipitate are visible in solution”.

Q: What about the appearance of solution ([4]; 3 ml stock + thiamine (5), 0.1808 g TR) of the same molecule?
A: Its appearance of solution is “small amount of suspension and precipitate are visible in solution”.

Q: What about the “amount of TR dissolved” value ([4]; 3 ml stock, 0.03175 g B3 amide+0.069 g B1+0.006352 g B7, footnote: immediately precipitate) of the same molecule?
A: Its value is 0.025 g.

Q: And the “amount of TR dissolved” value ([4]; 3 ml stock, 0.0482 g B3 amide+0.03 g B1)?
A: The value was 0.1844 g.

Q: What about the “amount of TR dissolved” value ([4]; 3 ml stock, 0.0482 g B3 amide+0.09 g B7, footnote: immediately precipitate) of the same molecule?
A: Its value is 0.025 g.

Q: And the solubility ([4]; glycerin/2,3 butane diol stock (70:30 mol), organic solvent or mixture, thermodynamic from solid, pure stock (70:30 mole glycerin:2,3 butane diol), read-out: solubility in stock)?
A: The solubility was 60 mg/mL.

Q: And the solubility ([4]; organic solvent or mixture, thermodynamic from solid, flavored glycerin (with 2,3 butane diol added) instead of regular stock, read-out: solubility)?
A: The solubility was 45 mg/mL.

Q: What about the solubility ([4]; solution 2: 1 ml TR stock solution + 0.175 ml ethanol) of the same molecule?
A: The solubility was 60 mg/mL.

Q: And the “appearance and stability of composition” value ([1]; 0.2 g trans resveratrol, 0.12 g nicotinamide, 0.08 g ethyl vanillin, 0.06 g cinnamic acid in 3.5 ml stock)?
A: Its value is “clear and flavored solution that became unstable after two weeks and precipitated”.
